Where two headings read alike, the source gives them in different places.
Key:
[1] = tested on: P. aeruginosa CF patient isolates and PAO1; format: cell-based, Pseudomonas aeruginosa; conditions: PAO1, 24 h
Protocol: The MIC of the peptides was tested as previously described with minor adjustments.[50],[51] Briefly, peptide activity was examined in sterile 96-well polystyrene plates (Bar-Naor BN36010096D). Overnight cultures of P. aeruginosa were washed and resuspended in a BM2 medium. Aliquots of 50 μL of suspended bacteria (1 × 10^6 CFU/mL) were added to 50 μL of BM2 medium containing peptides in serial 2-fold dilutions (final concentration between 0.78 and 50 μM). Plates were incubated for 24 h at 37 °C while being agitated. Inhibition of growth was assessed by absorbance measurements at OD600 using a microplate auto reader. The MIC was defined as the concentration at which 90% inhibition of growth was observed after incubation for 24 h.

CF sputum proteases = assay: in vitro; conditions: human, supernatant of pooled CF patient sputum, diluted 10-fold
Protocol: (§1) The peptide stability in CF patient sputum was tested as previously described.[52] Briefly, individual sputum samples from CF patients were pooled and diluted 10-fold with Dulbecco’s phosphate-buffered saline without calcium and magnesium. The suspensions were thoroughly mixed and then centrifuged at 1000 rpm for 10 min. D,L-K6L9 peptides and LL-37 were added to the supernatant to a final concentration of 100 μM, and the mixture was incubated at 37 °C for several time intervals. The reaction was stopped by adding 10 μL of 10% hydrogen chloride (HCl) to the 55 μL mixture. Residual peptide concentrations were determined via RP-HPLC on a Vydac C18 column (Grace Discovery Sciences, Deerfield, IL) using a linear gradient from 20% to 60% ACN in water (both containing 0.1% TFA) for 50 min. Data are presented as a percentage of peptide compared to the mixture without incubation ± standard errors.

in vitro = conditions: pooled CF patient sputum diluted 10-fold with PBS, supernatant, 100 μM peptide, 37 °C
Protocol: as §1

mammalian cells = conditions: cited from earlier work
From the text: We investigated the antibiofilm and antimicrobial activities of a series of peptides containing nine leucines and six lysines each, with a net charge of +7 (Table 1).

[2] = tested on: P. aeruginosa CF isolates and PAO1; format: cell-based, Pseudomonas aeruginosa; conditions: 10 μM peptide, 1 h, 37 °C
Protocol: The suspensions were thoroughly mixed, centrifuged at 1000 rpm for 10 min, and filtered with a 0.22 μm filter. Supernatants were stored and used for killing assays and fluorescence microscopy, respectively. Then, 10^6 CFU/mL of P. aeruginosa was added to a 10% diluted sputum supernatant, followed by 10 μM peptides. The mixture was incubated at 37 °C for 1 h and then diluted and plated on freshly made LB agar plates.

[3] = tested on: P. aeruginosa clinical CF isolates biofilm; format: cell-based, Pseudomonas aeruginosa; conditions: 24 h
Protocol: The biofilm formation assay was performed as described for the MIC assay with some alterations and used either BM2 or CF patient sputum diluted 10-fold with BM2. Plates containing peptides at serial dilutions and bacteria were incubated for 24 h at 37 °C without agitation to allow biofilm formation. Unattached bacteria were then washed from plates, and the plates stained with 0.1% CV, followed by absorbance measurements at OD590 using a microplate auto reader. Data are presented as a percentage of the biofilm biomass compared to biofilm formed by untreated bacteria ± the standard error.

CC(C)C[C@H](NC(=O)[C@H](CC(C)C)NC(=O)[C@@H](CC(C)C)NC(=O)[C@H](CC(C)C)NC(=O)[C@H](CCCCN)NC(=O)[C@H](CCCCN)NC(=O)[C@@H](CCCCN)NC(=O)[C@@H](CCCCN)NC(=O)[C@H](CCCCN)NC(=O)[C@@H](CCCCN)NC(=O)[C@H](CC(C)C)NC(=O)[C@H](CC(C)C)NC(=O)[C@@H](CC(C)C)NC(=O)[C@H](CC(C)C)NC(=O)[C@@H](N)CC(C)C)C(N)=O (stereo in doubt) [Seg6D]
MIC [1]: ≤ 12.5 µM
metabolised at 24 h, 100 μM (CF sputum proteases): ~30%
metabolised at 48 h, 100 μM (CF sputum proteases): ~30%
degradation in CF sputum (in vitro; 6 h, RP-HPLC): protected entirely from degradation

CC(C)C[C@H](NC(=O)[C@H](CC(C)C)NC(=O)[C@@H](CC(C)C)NC(=O)[C@@H](CC(C)C)NC(=O)[C@H](CC(C)C)NC(=O)[C@@H](CC(C)C)NC(=O)[C@H](CC(C)C)NC(=O)[C@H](CC(C)C)NC(=O)[C@@H](CCCCN)NC(=O)[C@H](CCCCN)NC(=O)[C@@H](N)CCCCN)C(=O)N[C@@H](CC(C)C)C(=O)N[C@H](CCCCN)C(=O)N[C@@H](CCCCN)C(=O)N[C@@H](CCCCN)C(N)=O (stereo in doubt) [Seg5D]
metabolised at 48 h, 100 μM (CF sputum proteases): ~30%
degradation in CF sputum (in vitro; 6 h, RP-HPLC): protected entirely from degradation

CC(C)C[C@H](NC(=O)[C@H](CC(C)C)NC(=O)[C@H](CCCCN)NC(=O)[C@H](CC(C)C)NC(=O)[C@H](CC(C)C)NC(=O)[C@H](CCCCN)NC(=O)[C@H](CCCCN)NC(=O)[C@H](CC(C)C)NC(=O)[C@H](CC(C)C)NC(=O)[C@H](CCCCN)NC(=O)[C@H](CCCCN)NC(=O)[C@H](CC(C)C)NC(=O)[C@H](CC(C)C)NC(=O)[C@H](CCCCN)NC(=O)[C@@H](N)CC(C)C)C(N)=O [Amp1L]
toxicity to mammalian cells (mammalian cells): toxic to mammalian cells
metabolised at 3 h, 100 μM (CF sputum proteases): ~70%
metabolised at 6 h, 100 μM (CF sputum proteases): ~80%

CC[C@H](C)[C@H](NC(=O)[C@H](CCCCN)NC(=O)[C@H](CCC(=O)O)NC(=O)[C@H](CCCCN)NC(=O)[C@H](CO)NC(=O)[C@H](CCCCN)NC(=O)[C@H](CCCNC(=N)N)NC(=O)[C@H](Cc1ccccc1)NC(=O)[C@H](Cc1ccccc1)NC(=O)[C@H](CC(=O)O)NC(=O)CNC(=O)[C@H](CC(C)C)NC(=O)[C@@H](N)CC(C)C)C(=O)NCC(=O)N[C@@H](CCCCN)C(=O)N[C@@H](CCC(=O)O)C(=O)N[C@@H](Cc1ccccc1)C(=O)N[C@@H](CCCCN)C(=O)N[C@@H](CCCNC(=N)N)C(=O)N[C@H](C(=O)N[C@H](C(=O)N[C@@H](CCC(N)=O)C(=O)N[C@@H](CCCNC(=N)N)C(=O)N[C@H](C(=O)N[C@@H](CCCCN)C(=O)N[C@@H](CC(=O)O)C(=O)N[C@@H](Cc1ccccc1)C(=O)N[C@@H](CC(C)C)C(=O)N[C@@H](CCCNC(=N)N)C(=O)N[C@@H](CC(N)=O)C(=O)N[C@@H](CC(C)C)C(=O)N[C@H](C(=O)N1CCC[C@H]1C(=O)N[C@@H](CCCNC(=N)N)C(=O)N[C@H](C(=O)N[C@@H](CCC(=O)O)C(=O)N[C@@H](CO)C(N)=O)[C@@H](C)O)C(C)C)[C@@H](C)CC)C(C)C)[C@@H](C)CC [LL-37, reference compound]
killing rate ([2]; PAO1, 10% mixed CF sputum, 10^6 CFU/mL, colony count vs untreated): 11.48%
killing rate ([2]; control isolate 895 in 895 CF diluted sputum): 97.57%
killing rate ([2]; isolate 24, 10% mixed CF sputum, 10^6 CFU/mL, colony count vs untreated): 13.23%
killing rate ([2]; isolate 46, 10% mixed CF sputum, 10^6 CFU/mL, colony count vs untreated): 11.73%
killing rate ([2]; isolate 82, 10% mixed CF sputum, 10^6 CFU/mL, colony count vs untreated): 34.24%
degradation in CF sputum (in vitro; 30 min, residual peptide by RP-HPLC vs no incubation): fully degraded

CC(C)C[C@H](NC(=O)[C@H](CC(C)C)NC(=O)[C@@H](CCCCN)NC(=O)[C@H](CC(C)C)NC(=O)[C@H](CC(C)C)NC(=O)[C@H](CCCCN)NC(=O)[C@@H](CCCCN)NC(=O)[C@@H](CC(C)C)NC(=O)[C@H](CC(C)C)NC(=O)[C@@H](CCCCN)NC(=O)[C@H](CCCCN)NC(=O)[C@H](CC(C)C)NC(=O)[C@@H](CC(C)C)NC(=O)[C@H](CCCCN)NC(=O)[C@@H](N)CC(C)C)C(N)=O (stereo in doubt) [Amp1D]
inhibition of biofilm formation [3]: ~50%
MIC [1]: ≤ 3.12 µM
metabolised at 48 h, 100 μM (CF sputum proteases): ~30%
degradation in CF sputum (in vitro; 6 h, RP-HPLC): protected entirely from degradation
